Measurements reported in patent EP1067939B1, “USE OF STEROIDAL ALKALOID DERIVATIVES AS INHIBITORS OF HEDGEHOG PROTEIN SIGNALING PATHWAYS” (The Johns Hopkins University, priority 1998, dated 1999).
“And” between values parts separate entries of the source, which are not always exact repeats. Equal entries are not always repeated. Where two headings read alike, the source gives them in different places.

Key:
[1] = system: primary human lymphoblasts; assay: Cholesterol Biosynthesis Assay (sterol profiles of cultured cells); format: cell-based; conditions: for Percent Sterols: 2. C28 Sterols / Percent Sterols: 3. C29 Sterols / Percent Sterols: Cholesterol / Percent Sterols: d. Zymosterol / Percent Sterols: e. Cholesta-8(14)-en-3ß-ol / Percent Sterols: f. 7 Dehydrocholesterol / Total Sterols (µg/mg protein) / Percent Sterols: c. Cholesta-7,24-dien-3ß-ol: five days
[2] = system: rat hepatoma cells; assay: Cholesterol Esterification Assay (esterification of plasma membrane cholesterol); format: cell-based
Excerpt: Table 1. […] Table 1. Effects of synthetic and plant-derived compounds on cholesterol homeostasis. […]

[3] = system: chick embryos
Excerpt: • 1. M. Hammerschmidt, A. Brook, A. P. McMahon, Trends Genet, 13, 14-21 (1997). • 2. C. Chiang, et al., Nature, 383,407-413 (1996). • 3. Y. Tanabe, T. M. Jessell, Science 274, 1115-1123 (1996). • 4. T. P. Yamaguchi, Curr. Opin. Genet. Dev. 7, 513-518 (1997). • 5. N. Shubin, C. Tabin, S. Carroll, Nature 388, 639-648 (1997). • 6. A. E. Oro, et al., Science 276, 817-821 (1997). • 7. M. M. Cohen, K. K. Sulik, J. Craniofac. Genet. Deve. Biol. 12, 196-244 (1992). • 8. E. Belloni, et al., Nature Genet. 14, 353-356 (1996). • 9. E. Roessler, et al., Nature Genet. 14, 357-360 (1996). • 10. J. A. Porter, et al., Nature 374, 363-366 (1995). • 11. J. A. Porter, K. E. Young, P. A. Beacy, Science 274, 255-259 (1996b). • 12. J. J. Lee, et al., Science 266, 1528-1537 (1994). • 13. J. A. Porter, et al., Cell 86, 21-34 (1996a). • 14. C. Roux, Arch. Franc. Pediatr. 21, 451-464 (1964). • 15. C. Roux, C. R. Soc. Biol. 160, 1353-1357 (1966). • 16. D. B. Dehart, L. Lanoue, G. S. Tinit, K. K. Sulik, Am J. Med. Genet. 68, 328-337 (1997). • 17. M. Kraml, J. F. Bagli, D. Dvornik, Biochem. and Biophysical Res. Com. 15, 455-457 (1964). • 18. J. Avigan, D. Steinberg, H. E. Vroman, M. J. Thompson, E. Mosettig, J. Biol. Chem 235, 3123-3126 (1960). • 19. R. B. Clayton, A. N. Nelson, I. D. Frantz Jr., J. Lipid Res. 4, 166-178 (1963). • 20. J. Aufenanger, J. Pill, K. Stegmeier, F. H. Schmidt, Horm. Metabol. Res. 17, 612-613 (1986). • 21. […] G. Popjak, A. Meenean, E. J. Parish, W. D. Nes, J. Biol. Chem 264,6230-6238 (1989). • 23. H. Yoshikawa, Brain Deve. 13, 115-120 (1991). • 24. R. I. Kelley, et al., Am. J. Of Med. Gen. 66, 478-484 (1996). • 25. G. S. Tint, et al., New England Journal of Medicine 330, 107-113 (1994). • 26. T.E. Willnow, et al., Proc. Natl. Acad. Sci USA 93, 8460-8464 (1996). • 27. S. Stefansson, D. A. Chappell, K. M. Argraves, D. K. Strickland, W. S. Argraves, J. Biol. Chem. 270, 19417-19421 (1995). • 28. W. Binns, L. F. James, J. L. Shupe, G. Everett, Am. J. Vet. Res. 24, 1164-1174 (1963). • 29. R. F. Keeler, W. Binns, Teratology 1, 5-10 (1968). • 30. P. A. Beachy, et al., CSH Symp. Quant. Biol. 62, in press (1997). • 31. […]

[4] = system: endogenous Shh signaling; assay: Midline neural plate/notochord explant assay of endogenous Shh signaling; format: cell-based, chick
[5] = target: T1, Shh (Mus musculus, UniProt Q62226); assay: Shh autoprocessing in stably transfected HK293 cells (immunoblot); format: cell-based; conditions: added during the 24-hour induction period; doses up to 5-fold higher than those required to completely inhibit Shh signaling
T1 construct: expressed in transfected cells; host or cells: HK293 cells, Ecdysone-Inducible Mammalian Expression System (Invitrogen)
T1 sequence (Q62226 25-437): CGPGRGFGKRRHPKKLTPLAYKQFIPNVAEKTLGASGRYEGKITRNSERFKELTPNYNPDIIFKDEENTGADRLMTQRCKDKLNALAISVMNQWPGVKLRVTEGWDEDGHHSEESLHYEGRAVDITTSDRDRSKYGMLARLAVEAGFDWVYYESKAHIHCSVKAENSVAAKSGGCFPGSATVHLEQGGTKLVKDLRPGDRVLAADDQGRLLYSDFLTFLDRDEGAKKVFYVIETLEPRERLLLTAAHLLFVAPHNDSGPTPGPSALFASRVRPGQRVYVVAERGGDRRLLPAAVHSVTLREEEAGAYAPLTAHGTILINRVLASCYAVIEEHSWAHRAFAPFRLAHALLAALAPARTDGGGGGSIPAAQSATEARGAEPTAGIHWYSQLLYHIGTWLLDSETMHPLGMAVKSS
Excerpt: To examine potential effects of these compounds on Shh processing we utilized HK293 cells cultured in lipid-depleted serum and carrying a stable integrated construct for expression of Shh under ecdysone-inducible control (47). Shh protein expression in these cells can be induced by addition of muristerone A, an ecdysone analog.
• 1. M. Hammerschmidt, A. Brook, A. P. McMahon, Trends Genet, 13, 14-21 (1997). • 2. C. Chiang, et al., Nature, 383,407-413 (1996). • 3. Y. Tanabe, T. M. Jessell, Science 274, 1115-1123 (1996). • 4. T. P. Yamaguchi, Curr. Opin. Genet. Dev. 7, 513-518 (1997). • 5. N. Shubin, C. Tabin, S. Carroll, Nature 388, 639-648 (1997). • 6. A. E. Oro, et al., Science 276, 817-821 (1997). • 7. M. M. Cohen, K. K. Sulik, J. Craniofac. Genet. Deve. Biol. 12, 196-244 (1992). • 8. E. Belloni, et al., Nature Genet. 14, 353-356 (1996). • 9. E. Roessler, et al., Nature Genet. 14, 357-360 (1996). • 10. J. A. Porter, et al., Nature 374, 363-366 (1995). • 11. J. A. Porter, K. E. Young, P. A. Beacy, Science 274, 255-259 (1996b). • 12. J. J. Lee, et al., Science 266, 1528-1537 (1994). • 13. J. A. Porter, et al., Cell 86, 21-34 (1996a). • 14. C. Roux, Arch. Franc. Pediatr. 21, 451-464 (1964). • 15. C. Roux, C. R. Soc. Biol. 160, 1353-1357 (1966). • 16. D. B. Dehart, L. Lanoue, G. S. Tinit, K. K. Sulik, Am J. Med. Genet. 68, 328-337 (1997). • 17. M. Kraml, J. F. Bagli, D. Dvornik, Biochem. and Biophysical Res. Com. 15, 455-457 (1964). • 18. J. Avigan, D. Steinberg, H. E. Vroman, M. J. Thompson, E. Mosettig, J. Biol. Chem 235, 3123-3126 (1960). • 19. R. B. Clayton, A. N. Nelson, I. D. Frantz Jr., J. Lipid Res. 4, 166-178 (1963). • 20. J. Aufenanger, J. Pill, K. Stegmeier, F. H. Schmidt, Horm. Metabol. Res. 17, 612-613 (1986). • 21. […] G. Popjak, A. Meenean, E. J. Parish, W. D. Nes, J. Biol. Chem 264,6230-6238 (1989). • 23. H. Yoshikawa, Brain Deve. 13, 115-120 (1991). • 24. R. I. Kelley, et al., Am. J. Of Med. Gen. 66, 478-484 (1996). • 25. G. S. Tint, et al., New England Journal of Medicine 330, 107-113 (1994). • 26. T.E. Willnow, et al., Proc. Natl. Acad. Sci USA 93, 8460-8464 (1996). • 27. S. Stefansson, D. A. Chappell, K. M. Argraves, D. K. Strickland, W. S. Argraves, J. Biol. Chem. 270, 19417-19421 (1995). • 28. W. Binns, L. F. James, J. L. Shupe, G. Everett, Am. J. Vet. Res. 24, 1164-1174 (1963). • 29. R. F. Keeler, W. Binns, Teratology 1, 5-10 (1968). • 30. P. A. Beachy, et al., CSH Symp. Quant. Biol. 62, in press (1997). • 31. E. D. Carstea, et al., Science 277, 228-231 (1997). • 32. S. K. Loftus, et al., Science 277, 232-235 […]. • 33. L. V. Goodrich, L. Milenkovic, K. M. Higgins, M. P. Scott, Science 277, 1109-1113 (1997). • 34. H. Kumagai, K. T. Chun, R. D. Simoni, J. Biol. Chem. 270, 19107-19113 (1995). • 35. G. Gil, J. R. Faust, D. J. Chin, J. L. Goldstien, M. S. Brown, Cell 41, 249-258 (1985). • 36. X. Hua, A. Nohturfft, J. L. Goldstein, M. S. Brown, Cell 87, 415-426 (1996). • 37. M. S. Brown, J. L. Goldstein, Cell 89, 331-340 (1997). • 38. M. M. Bryden, C. Perry, R. F. Keeler, Teratology 8, 18-28 (1973). • 39. M. L. Omnell, F. R. P. Sim, R. F. Keeler, L. C. Harne, K. W. Brown, Teratology 42, 105-119 (1990). • 40. Fertile chick eggs (white leghorn) were placed in a humidified incubator at 37.5° C in a rotating tray for 14 hours. […] The window was taped and the eggs incubated for an additional 4 days. The embryos were dissected in phosphate buffered saline (PBS, pH 7.2).

[6] = target: T2, His6Hh-C (Drosophila melanogaster, UniProt Q02936); assay: In vitro Hh autoprocessing reaction with purified components; format: biochemical
T2 construct: made in house
T2 sequence (Q02936 252-471): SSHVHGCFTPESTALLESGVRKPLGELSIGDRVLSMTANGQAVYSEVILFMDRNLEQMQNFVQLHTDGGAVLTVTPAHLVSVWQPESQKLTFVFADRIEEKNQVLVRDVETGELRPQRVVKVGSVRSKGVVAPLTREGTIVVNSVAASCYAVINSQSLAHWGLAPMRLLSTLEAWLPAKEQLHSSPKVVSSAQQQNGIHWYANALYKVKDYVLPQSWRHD

[7] = system: Shh-N; assay: Intermediate neural plate explant response to exogenous Shh-N protein; format: cell-based, chick
[8] = system: BMP7; assay: Neural plate explant response to BMP7 (migratory HNK-1 positive cells); format: cell-based, chick; conditions: 10 µM, 100 ng/ml BMP7, ventral neural plate explants
[9] = system: Shh protein; assay: Shh protein localization in floor plate cells of treated chick embryos; format: in vivo; conditions: embryos treated after floor plate induction
[10] = read-out: Percent Inhibition (incorporation of label into cholesteryl ester*) ^3H-Cholesterol
[11] = read-out: Percent Inhibition (incorporation of label into cholesteryl ester*) ^14C-Oleic Acid

CC1=C2C(=O)[C@H]3[C@@H](CC=C4C[C@@H](O)CC[C@@]43C)[C@@H]2CC[C@]12O[C@@H]1C[C@H](C)CN[C@H]1[C@H]2C [Jervine, jervine]
Percent Sterols: a. Desmosterol [1]: 2.7% and 2.5% and 2.4% | Percent Sterols: 2. C28 Sterols ([1]; 1.25 µM): 1.2% | Percent Sterols: 3. C29 Sterols ([1]; 1.25 µM): 0.8% | Percent Sterols: Cholesterol ([1]; 1.25 µM): 90% | Percent Sterols: d. Zymosterol ([1]; 1.25 µM): 1.7% | Percent Sterols: e. Cholesta-8(14)-en-3ß-ol ([1]; 1.25 µM): 1.0% | Percent Sterols: f. 7 Dehydrocholesterol ([1]; 1.25 µM): 1.5% | Total Sterols (µg/mg protein) ([1]; 1.25 µM): 8.8 µg/mg protein | Percent Sterols: 2. C28 Sterols ([1]; 2.5 µM): 0.7% | Percent Sterols: 3. C29 Sterols ([1]; 2.5 µM): 0.8% | Percent Sterols: Cholesterol ([1]; 2.5 µM): 90% | Percent Sterols: c. Cholesta-7,24-dien-3ß-ol ([1]; 2.5 µM): 0.5% | Percent Sterols: d. Zymosterol ([1]; 2.5 µM): 2.0% | Percent Sterols: e. Cholesta-8(14)-en-3ß-ol ([1]; 2.5 µM): 1.7% | Percent Sterols: f. 7 Dehydrocholesterol ([1]; 2.5 µM): 1.4% | Total Sterols (µg/mg protein) ([1]; 2.5 µM): 8.4 µg/mg protein | Percent Sterols: 2. C28 Sterols ([1]; 5.0 µM): 0.7% | Percent Sterols: 3. C29 Sterols ([1]; 5.0 µM): 1.6% | Percent Sterols: Cholesterol ([1]; 5.0 µM): 88% | Percent Sterols: c. Cholesta-7,24-dien-3ß-ol ([1]; 5.0 µM): 0.5% | Percent Sterols: d. Zymosterol ([1]; 5.0 µM): 2.3% | Percent Sterols: e. Cholesta-8(14)-en-3ß-ol ([1]; 5.0 µM): 2.3% | Percent Sterols: f. 7 Dehydrocholesterol ([1]; 5.0 µM): 1.3% | Total Sterols (µg/mg protein) ([1]; 5.0 µM): 10 µg/mg protein | inhibition at 2.5 µM [2, 10]: 24% | inhibition at 2.5 µM [2, 11]: 28% | inhibition at 5 µM [2, 10]: 44% | inhibition at 5 µM [2, 11]: 36% | inhibition at 10 µM [2, 10]: 50% | inhibition at 10 µM [2, 11]: 49% | Holoprosencephaly induced in chick embryos ([3]; in ovo exposure at the intermediate to definitive streak stage, Fig. 2: 10 µM jervine): induced external malformations characteristic of HPE | embryos displayed normal morphology ([3]; in ovo, highest concentrations tested, 50µM): 5/10 | Higher doses that fully inhibit HNF3β and Isl-1 induction [4]: 4.0 µM | Intermediate doses that block induction of HNF3β while permitting induction of Isl-1 [4]: 0.5 µM | Shh-Np production and accumulation of unprocessed precursor [5]: did not diminish Shh-Np production nor induce accumulation of unprocessed precursor | His6Hh-C autocleavage reaction in the presence of compound without sterol [6]: does not proceed | interference with cholesterol-stimulated autoprocessing [6]: does not interfere with autoprocessing | concentration that inhibits the repression of Pax7 expression by 2 nM Shh-N [7]: 0.125 µM | doses at which HNF3β and Isl-1 induction are completely blocked [7]: 0.5 µM | intermediate levels at which induction of HNF3β is blocked while induction of Isl-1 is maintained or expanded [7]: 0.25 µM | Induction of migratory HNK-1 positive cells by BMP7 [8]: not inhibited | localization of Shh protein within floor plate cells [9]: normal apical localization of Shh protein
